Assay results taken from the NIST ThermoML archive (doi:10.1016/j.tca.2013.07.012).
± gives the expanded uncertainty stated by the source.

Assay: xn = mol fraction of the nth substance listed
Conditions: 101 kPa, Liquid, Vibrating tube method

A mass density (323.15 K, x1 = 0.4012) of 1183.35 ± 0.17 kg/m3, a mass density (323.15 K, x1 = 0.4907) of 1198.19 ± 0.17 kg/m3 and a mass density (323.15 K, x1 = 0.5828) of 1210.22 ± 0.17 kg/m3 were found for `OCC(O)CO` [glycerol] + O in this work. It also gave a mass density (323.15 K, x1 = 0.6857) of 1220.77 ± 0.18 kg/m3, a mass density (323.15 K, x1 = 0.7494) of 1226.23 ± 0.18 kg/m3 and a mass density (323.15 K, x1 = 0.8101) of 1230.76 ± 0.19 kg/m3. It also gave a mass density (323.15 K, x1 = 0.8528) of 1233.67 ± 0.19 kg/m3, a mass density (323.15 K, x1 = 0.882) of 1235.56 ± 0.2 kg/m3 and a mass density (323.15 K, x1 = 0.9143) of 1237.53 ± 0.2 kg/m3. For the same compound, the mass density (323.15 K, x1 = 0.9408) was 1239.01 ± 0.2 kg/m3, the mass density (323.15 K, x1 = 0.9578) was 1239.93 ± 0.21 kg/m3 and the mass density (323.15 K, x1 = 0.9792) was 1241.1 ± 0.21 kg/m3. The mass density (323.15 K, x1 = 0.9895) was 1241.61 ± 0.21 kg/m3, the mass density (323.15 K, x1 = 1) was 1242.11 ± 0.21 kg/m3 and the mass density (333.15 K, x1 = 0.00209) was 985.55 ± 0.11 kg/m3. For the same compound, the mass density (333.15 K, x1 = 0.00439) was 988.13 ± 0.11 kg/m3, the mass density (333.15 K, x1 = 0.0051) was 988.9 ± 0.11 kg/m3 and the mass density (333.15 K, x1 = 0.00657) was 990.52 ± 0.11 kg/m3. The mass density (333.15 K, x1 = 0.01072) was 994.98 ± 0.11 kg/m3, the mass density (333.15 K, x1 = 0.01633) was 1000.85 ± 0.11 kg/m3 and the mass density (333.15 K, x1 = 0.03504) was 1018.99 ± 0.11 kg/m3. For the same compound, the mass density (333.15 K, x1 = 0.05086) was 1032.9 ± 0.12 kg/m3, the mass density (333.15 K, x1 = 0.06775) was 1046.46 ± 0.12 kg/m3 and the mass density (333.15 K, x1 = 0.1127) was 1077.08 ± 0.14 kg/m3. It also gave a mass density (333.15 K, x1 = 0.1559) of 1100.45 ± 0.14 kg/m3, a mass density (333.15 K, x1 = 0.206) of 1122.53 ± 0.15 kg/m3 and a mass density (333.15 K, x1 = 0.256) of 1140.39 ± 0.16 kg/m3. The mass density (333.15 K, x1 = 0.3311) was 1161.69 ± 0.16 kg/m3, the mass density (333.15 K, x1 = 0.4012) was 1177 ± 0.16 kg/m3 and the mass density (333.15 K, x1 = 0.4907) was 1191.81 ± 0.17 kg/m3. It also gave a mass density (333.15 K, x1 = 0.5828) of 1203.79 ± 0.17 kg/m3, a mass density (333.15 K, x1 = 0.6857) of 1214.31 ± 0.17 kg/m3 and a mass density (333.15 K, x1 = 0.7494) of 1219.8 ± 0.18 kg/m3. For the same compound, the mass density (333.15 K, x1 = 0.8101) was 1224.29 ± 0.19 kg/m3, the mass density (333.15 K, x1 = 0.8528) was 1227.21 ± 0.19 kg/m3 and the mass density (333.15 K, x1 = 0.882) was 1229.08 ± 0.19 kg/m3. It also gave a mass density (333.15 K, x1 = 0.9143) of 1231.07 ± 0.2 kg/m3, a mass density (333.15 K, x1 = 0.9408) of 1232.59 ± 0.2 kg/m3 and a mass density (333.15 K, x1 = 0.9578) of 1233.52 ± 0.2 kg/m3. It also gave a mass density (333.15 K, x1 = 0.9792) of 1234.68 ± 0.21 kg/m3, a mass density (333.15 K, x1 = 0.9895) of 1235.2 ± 0.21 kg/m3 and a mass density (333.15 K, x1 = 1) of 1235.71 ± 0.21 kg/m3. The mass density (348.15 K, x1 = 0.00209) was 977.18 ± 0.11 kg/m3, the mass density (348.15 K, x1 = 0.00439) was 979.74 ± 0.11 kg/m3 and the mass density (348.15 K, x1 = 0.0051) was 980.52 ± 0.11 kg/m3. It also gave a mass density (348.15 K, x1 = 0.00657) of 982.12 ± 0.11 kg/m3, a mass density (348.15 K, x1 = 0.01072) of 986.55 ± 0.11 kg/m3 and a mass density (348.15 K, x1 = 0.01633) of 992.29 ± 0.11 kg/m3. The mass density (348.15 K, x1 = 0.03504) was 1010.23 ± 0.11 kg/m3, the mass density (348.15 K, x1 = 0.05086) was 1024.05 ± 0.12 kg/m3 and the mass density (348.15 K, x1 = 0.06775) was 1037.5 ± 0.12 kg/m3. The mass density (348.15 K, x1 = 0.1127) was 1067.8 ± 0.14 kg/m3, the mass density (348.15 K, x1 = 0.1559) was 1090.81 ± 0.14 kg/m3 and the mass density (348.15 K, x1 = 0.206) was 1112.88 ± 0.15 kg/m3. It also gave a mass density (348.15 K, x1 = 0.256) of 1130.45 ± 0.15 kg/m3, a mass density (348.15 K, x1 = 0.3311) of 1151.47 ± 0.16 kg/m3 and a mass density (348.15 K, x1 = 0.4012) of 1166.73 ± 0.16 kg/m3. The mass density (348.15 K, x1 = 0.4907) was 1181.85 ± 0.17 kg/m3, the mass density (348.15 K, x1 = 0.5828) was 1193.86 ± 0.17 kg/m3 and the mass density (348.15 K, x1 = 0.6857) was 1204.27 ± 0.17 kg/m3. The mass density (348.15 K, x1 = 0.7494) was 1209.73 ± 0.18 kg/m3, the mass density (348.15 K, x1 = 0.8101) was 1214.26 ± 0.18 kg/m3 and the mass density (348.15 K, x1 = 0.8528) was 1217.21 ± 0.19 kg/m3. It also gave a mass density (348.15 K, x1 = 0.882) of 1219.1 ± 0.19 kg/m3, a mass density (348.15 K, x1 = 0.9143) of 1221.08 ± 0.19 kg/m3 and a mass density (348.15 K, x1 = 0.9408) of 1222.63 ± 0.2 kg/m3. It also gave a mass density (348.15 K, x1 = 0.9578) of 1223.59 ± 0.2 kg/m3, a mass density (348.15 K, x1 = 0.9792) of 1224.76 ± 0.2 kg/m3 and a mass density (348.15 K, x1 = 0.9895) of 1225.28 ± 0.2 kg/m3. The mass density (348.15 K, x1 = 1) was 1225.79 ± 0.21 kg/m3.
